Test [1] relates to P. falciparum NF54 (CQ sensitive). As to the kind of experiment: [3H]-hypoxanthine incorporation assay, NF54 strain. Type of test: cell-based. The conditions noted are these: Plasmodium falciparum, values marked with asterisk: [3H]-hypoxanthine assay, read-out: IC50 growth inhibition NF54*.
Test [2] deals with P. falciparum K1 (CQ-resistant). In words: [3H]-hypoxanthine incorporation assay, K1 strain. The class given is cell-based. As to conditions: Plasmodium falciparum, values marked with asterisk: [3H]-hypoxanthine assay, read-out: IC50 growth inhibition K1 (*).
The test system of test [3] is P. berghei, ANKA strain, GFP MRA-865. As to the kind of experiment: P. berghei rodent malaria 4-day suppressive test. The class given is in vivo, Plasmodium berghei. The conditions noted are these: NMRI mice, 30 mg/kg 4x i.p.; for % activity (percent reduction of parasitemia) / % of control: day 4; for avg.Day 4 (parasitemia): day 4 (96 h post-infection); for % of control: control group taken as 100%. Here is the method: Primary biological assessment of in vivo antimalarial efficacy of the compounds of the present invention was assessed using the P. berghei rodent malaria 4-day suppressive test as recently described (14) (parasite: P. berghei, ANKA strain, GFP MRA-865; mice: NMRI mice, SPF, females, 25±2 g. free from Eperythrozoon coccoides and Haemobartonella muris). The experimental groups were treated with a single dose of compounds of the present invention (30 mg/kg) by the i.p. route. The compounds were prepared at an appropriate concentration, as a solution or suspension containing 7% Tween80/3% ethanol. Day 1 to 3 (24 h, 48 h and 72 h post-infection), the experimental groups of mice were treated again with the same dose and by the same route as on day 0. Day 4 (24 h after the last treatment, i.e. 96 h post-infection), blood smears from all animals are prepared and stained with Giemsa. Parasitemia was determined as described elsewhere (14). The difference between the mean value of the control group (taken as 100%) and those of the experimental groups was calculated and expressed as percent reduction (=activity).
Indicated in TABLE 3 below are the percent reduction values for growth inhibition of the Plasmodium berghei parasite for the compounds of formula I indicated with their formula numbers of TABLE 2. Correlation of the formula numbers and chemical structures are set out in TABLE 1 of the example part.

For test [4], the system named is chloroquine (CQ) sensitive (3D7) strain of P. falciparum. As to the kind of experiment: antimalarial activity against 3D7 compared to propafenone (data not shown). The class given is cell-based.

Molecules are shown by their SMILES.

This is an account of results in patent US20150141437A1, “AMIDOPHENOXYPROPANOLAMINES” (MEDIZINISCHE UNIVERSITÄT WIEN, priority 2012, published 2015).

Regarding `O=C(Nc1ccc(F)cc1F)c1ccccc1OCC(O)CNCC12CC3CC(CC(C3)C1)C2` (stereo not drawn) [Compound I-39, 2-{3-[(Adamantan-1-ylmethyl)-amino]-2-hydroxy-propoxy}-N-(2,4-difluoro-phenyl)-benzamide], the IC50 in test [1] was 9 nM. In addition, the IC50 in test [2] is 3 nM. Further, in test [3], the “% activity (percent reduction of parasitemia)” value came to 49.01%, the “avg.Day 4 (parasitemia)” value was determined as 30.40 and the “% of control” value is listed as 50.99%.

For `Cc1ccc(NC(=O)c2ccccc2OCC(O)CNCC23CC4CC(CC(C4)C2)C3)cc1` (stereo not drawn) [Compound I-40, 2-{3-[(Adamantan-1-ylmethyl)-amino]-2-hydroxy-propoxy}-N-p-tolyl-benzamide], the IC50 in test [1] stood at 6 nM. Further, the IC50 in test [2] was 2 nM. In test [3], the “% activity (percent reduction of parasitemia)” value was 58.24%, the “avg.Day 4 (parasitemia)” value came out at 24.90 and the “% of control” value came out at 41.76%.

As for `O=C(Nc1cccc(C(F)(F)F)c1)c1ccccc1OCC(O)CNCC12CC3CC(CC(C3)C1)C2` (stereo not drawn) [Compound I-42, 2-{3-[(Adamantan-1-ylmethyl)-amino]-2-hydroxy-propoxy}-N-(3-trifluoromethyl-phenyl)-benzamide], the IC50 in test [1] was determined as 2 nM. In addition, the IC50 in test [2] worked out at 0.5 nM. In test [3], the “% activity (percent reduction of parasitemia)” value is 97.76%, the “avg.Day 4 (parasitemia)” value stood at 1.33 and the “% of control” value is 2.24%.

As for `O=C(Nc1ccc(F)cc1)c1ccccc1OCC(O)CNCC12CC3CC(CC(C3)C1)C2` (stereo not drawn) [Compound I-55, 2-{3-[(Adamantan-1-ylmethyl)-amino]-2-hydroxy-propoxy}-N-(4-fluoro-phenyl)-benzamide], the IC50 in test [1] stood at 6 nM. Moreover, the IC50 in test [2] was found to be 2 nM. In addition, in test [3], the “% activity (percent reduction of parasitemia)” value is 67.35%, the “avg.Day 4 (parasitemia)” value came to 19.47 and the “% of control” value was 32.65%.

In the case of `CCCNCC(O)COc1ccccc1C(=O)NCc1ccccc1` (stereo not drawn) [aza-propafenone], in test [4], the “decrease in IC50-value compared to propafenone (A)” value is reported as “seventy-fold decrease”.

In general, IC50 refers to the point on the concentration scale where inhibition reaches its midpoint.
